Converted amounts (≈) assume the structure as drawn.
Legend:
Format in all cases: functional
A549 = test: Cytotoxicity against human A549 cells after 6 days by MTT assay; details: A549, 144 h, read-out: ED50 (the source's name)
MCF7 = test: Cytotoxicity against human MCF7 cells after 6 days by MTT assay; details: MCF7, 144 h, read-out: ED50 (the source's name)
HT-29 = test: Cytotoxicity against human HT-29 cells after 6 days by MTT assay; details: HT-29, 144 h, read-out: ED50 (the source's name)
SK-MEL = test: Cytotoxicity against human SK-MEL cells after 6 days by MTT assay; details: 144 h, read-out: ED50 (the source's name)
Malme-3M = test: Cytotoxicity against human MALME-3M cells after 6 days by MTT assay; details: 144 h, read-out: ED50 (the source's name)

Row | Structure (SMILES) | EC50 (A549) | EC50 (MCF7) | EC50 (HT-29) | EC50 (SK-MEL) | EC50 (Malme-3M)
1 | O=C(O)c1c(-c2ccc(Br)cc2)oc2ccccc2c1=O | > 25 µg/mL | > 25 µg/mL | > 25 µg/mL | > 25 µg/mL | > 25 µg/mL
2 | Nc1ccc(-c2cc(=O)c3ccc(O)cc3o2)cc1 | 8.87 µg/mL (≈ 35 µM) | > 25 µg/mL | 4.71 µg/mL (≈ 18.6 µM) | 6.59 µg/mL (≈ 26 µM) | > 25 µg/mL
3 | COC(=O)c1c(-c2cc(OC)c(OC)c(OC)c2)oc2ccccc2c1=O | > 25 µg/mL | > 25 µg/mL | > 25 µg/mL | > 25 µg/mL | > 25 µg/mL
4 | O=C(O)c1c(-c2ccc([N+](=O)[O-])cc2)oc2ccccc2c1=O | > 25 µg/mL | > 25 µg/mL | > 25 µg/mL | > 25 µg/mL | > 25 µg/mL
5 | COC(=O)c1c(-c2ccc([N+](=O)[O-])cc2)oc2ccccc2c1=O | > 25 µg/mL | > 25 µg/mL | > 25 µg/mL | > 25 µg/mL | > 25 µg/mL
6 | COC(=O)c1c(-c2ccc(O)cc2)oc2cc(OC)ccc2c1=O | > 25 µg/mL | > 25 µg/mL | 19.2 µg/mL (≈ 58.9 µM) | 19.6 µg/mL (≈ 59.9 µM) | 20.1 µg/mL (≈ 61.6 µM)
7 | COC(=O)c1c(-c2ccc([N+](=O)[O-])cc2)oc2ccc(OC)cc2c1=O | > 25 µg/mL | > 25 µg/mL | > 25 µg/mL | 8.18 µg/mL (≈ 23 µM) | 24.1 µg/mL (≈ 67.8 µM)
8 | Nc1ccc(-c2cc(=O)c3cc(O)ccc3o2)cc1 | 2.72 µg/mL (≈ 10.7 µM) | > 25 µg/mL | 2.65 µg/mL (≈ 10.5 µM) | 2.03 µg/mL (≈ 8.02 µM) | > 25 µg/mL
9 | COc1ccc(-c2oc3ccccc3c(=O)c2C(=O)O)cc1 | > 25 µg/mL | > 25 µg/mL | > 25 µg/mL | > 25 µg/mL | > 25 µg/mL
10 | COC(=O)c1c(-c2ccc(Br)cc2)oc2ccccc2c1=O | > 25 µg/mL | > 25 µg/mL | > 25 µg/mL | > 25 µg/mL | > 25 µg/mL
11 | COC(=O)c1c(-c2ccc(OC)cc2)oc2ccccc2c1=O | > 25 µg/mL | > 25 µg/mL | > 25 µg/mL | > 25 µg/mL | > 25 µg/mL
12 | Nc1ccc(-c2cc(=O)c3c(O)cc(O)cc3o2)cc1 | 2.84 µg/mL (≈ 10.5 µM) | > 25 µg/mL | 3.44 µg/mL (≈ 12.8 µM) | 3.86 µg/mL (≈ 14.3 µM) | > 25 µg/mL
13 | COC(=O)c1c(-c2ccc(O)cc2)oc2ccc(OC)cc2c1=O | > 25 µg/mL | > 25 µg/mL | > 25 µg/mL | 18.7 µg/mL (≈ 57.3 µM) | > 25 µg/mL
14 | COc1ccc(-c2oc3ccccc3c(=O)c2C(=O)O)cc1OC | > 25 µg/mL | > 25 µg/mL | > 25 µg/mL | > 25 µg/mL | > 25 µg/mL
15 | COc1ccc2oc(-c3ccc([N+](=O)[O-])cc3)c(C(=O)O)c(=O)c2c1 | > 25 µg/mL | 15.8 µg/mL (≈ 46.4 µM) | > 25 µg/mL | > 25 µg/mL | > 25 µg/mL
16 | COC(=O)c1c(-c2ccc(OCc3ccccc3)cc2)oc2ccc(OC)cc2c1=O | 22.1 µg/mL (≈ 53 µM) | > 25 µg/mL | 15.6 µg/mL (≈ 37.4 µM) | 20.9 µg/mL (≈ 50.1 µM) | > 25 µg/mL
17 | O=c1cc(-c2ccc([N+](=O)[O-])cc2)oc2cc(O)ccc12 | 21.8 µg/mL (≈ 76.9 µM) | > 25 µg/mL | 6.95 µg/mL (≈ 24.5 µM) | > 25 µg/mL | > 25 µg/mL
18 | COc1cc(-c2oc3ccccc3c(=O)c2C(=O)O)cc(OC)c1OC | > 25 µg/mL | > 25 µg/mL | > 25 µg/mL | > 25 µg/mL | > 25 µg/mL
19 | O=c1cc(-c2ccc([N+](=O)[O-])cc2)oc2ccc(O)cc12 | 5.07 µg/mL (≈ 17.9 µM) | > 25 µg/mL | > 25 µg/mL | 21 µg/mL (≈ 74.2 µM) | > 25 µg/mL
20 | COC(=O)c1c(-c2ccc(OCc3ccccc3)cc2)oc2ccccc2c1=O | > 25 µg/mL | > 25 µg/mL | > 25 µg/mL | > 25 µg/mL | > 25 µg/mL

Row | Structure (SMILES) | EC50 (A549) | EC50 (MCF7) | EC50 (HT-29) | EC50 (SK-MEL) | EC50 (Malme-3M)
21 | COc1cc(OC)cc(-c2oc3ccccc3c(=O)c2C(=O)O)c1 | > 25 µg/mL | > 25 µg/mL | > 25 µg/mL | > 25 µg/mL | > 25 µg/mL
22 | COC(=O)c1c(-c2ccc(NC(C)=O)cc2)oc2cc(OC)ccc2c1=O | 9.76 µg/mL (≈ 26.6 µM) | 9.19 µg/mL (≈ 25 µM) | 8.21 µg/mL (≈ 22.3 µM) | 15.9 µg/mL (≈ 43.4 µM) | 9.26 µg/mL (≈ 25.2 µM)
23 | COC(=O)c1c(-c2ccc(OC)c(OC)c2)oc2ccccc2c1=O | > 25 µg/mL | > 25 µg/mL | > 25 µg/mL | > 25 µg/mL | > 25 µg/mL
24 | COC(=O)c1c(-c2ccc(O)cc2)oc2ccccc2c1=O | > 25 µg/mL | > 25 µg/mL | > 25 µg/mL | > 25 µg/mL | > 25 µg/mL
25 | COC(=O)c1c(-c2cc(OC)cc(OC)c2)oc2ccccc2c1=O | > 25 µg/mL | > 25 µg/mL | 6.99 µg/mL (≈ 20.5 µM) | > 25 µg/mL | > 25 µg/mL
26 | O=c1cc(-c2ccc([N+](=O)[O-])cc2)oc2cc(O)cc(O)c12 | 4.19 µg/mL (≈ 14 µM) | 6.9 µg/mL (≈ 23.1 µM) | 3.34 µg/mL (≈ 11.2 µM) | 4.87 µg/mL (≈ 16.3 µM) | > 25 µg/mL
27 | COC(=O)c1c(-c2ccc([N+](=O)[O-])cc2)oc2cc(OC)ccc2c1=O | > 25 µg/mL | > 25 µg/mL | > 25 µg/mL | 2.84 µg/mL (≈ 7.99 µM) | 1.12 µg/mL (≈ 3.15 µM)
28 | COC(=O)c1c(-c2ccc(OCc3ccccc3)cc2)oc2cc(OC)ccc2c1=O | 20.4 µg/mL (≈ 49.1 µM) | 5.16 µg/mL (≈ 12.4 µM) | 5.42 µg/mL (≈ 13 µM) | > 25 µg/mL | > 25 µg/mL
29 | COc1ccc2c(=O)c(C(=O)O)c(-c3ccc([N+](=O)[O-])cc3)oc2c1 | > 25 µg/mL | > 25 µg/mL | > 25 µg/mL | > 25 µg/mL | > 25 µg/mL
30 | COC(=O)c1c(-c2ccc(N)cc2)oc2ccccc2c1=O | > 25 µg/mL | > 25 µg/mL | > 25 µg/mL | > 25 µg/mL | > 25 µg/mL
31 | O=c1cc(-c2ccc([N+](=O)[O-])cc2)oc2c(O)c(O)ccc12 | 2.56 µg/mL (≈ 8.56 µM) | 4.69 µg/mL (≈ 15.7 µM) | 3.46 µg/mL (≈ 11.6 µM) | 3.29 µg/mL (≈ 11 µM) | 3.61 µg/mL (≈ 12.1 µM)
32 | COc1cc(-c2cc(=O)c3ccc(O)c(O)c3o2)cc(OC)c1OC | 5.27 µg/mL (≈ 15.3 µM) | 1.11 µg/mL (≈ 3.22 µM) | 3.66 µg/mL (≈ 10.6 µM) | > 25 µg/mL | > 25 µg/mL
33 | COc1cc(-c2cc(=O)c3ccc(O)cc3o2)cc(OC)c1OC | > 25 µg/mL | > 25 µg/mL | > 25 µg/mL | > 25 µg/mL | > 25 µg/mL
34 | CC(=O)Nc1ccc(-c2cc(=O)c3ccc(OC(C)=O)cc3o2)cc1 | 20.5 µg/mL (≈ 60.9 µM) | 19.2 µg/mL (≈ 56.9 µM) | 19.8 µg/mL (≈ 58.7 µM) | 16.9 µg/mL (≈ 50.1 µM) | > 25 µg/mL
35 | COc1cc(-c2cc(=O)c3ccc(O)cc3o2)cc(OC)c1O[Si](C)(C)C(C)(C)C | 5.3 µg/mL (≈ 12.4 µM) | 4.47 µg/mL (≈ 10.4 µM) | 1 µg/mL (≈ 2.33 µM) | > 25 µg/mL | > 25 µg/mL
36 | CC(=O)Nc1ccc(-c2cc(=O)c3c(OC(C)=O)cc(OC(C)=O)cc3o2)cc1 | 22 µg/mL (≈ 55.6 µM) | 1.78 µg/mL (≈ 4.5 µM) | 17.4 µg/mL (≈ 44 µM) | 14 µg/mL (≈ 35.3 µM) | > 25 µg/mL
37 | COc1cc(-c2cc(=O)c3cc(O)ccc3o2)cc(OC)c1O[Si](C)(C)C(C)(C)C | 3.19 µg/mL (≈ 7.44 µM) | 2.01 µg/mL (≈ 4.69 µM) | 2.63 µg/mL (≈ 6.14 µM) | 2.95 µg/mL (≈ 6.88 µM) | 5.3 µg/mL (≈ 12.4 µM)
38 | COc1cc(-c2cc(=O)c3cc(O)ccc3o2)cc(OC)c1OC | 9.82 µg/mL (≈ 29.9 µM) | > 25 µg/mL | 7.85 µg/mL (≈ 23.9 µM) | 5.87 µg/mL (≈ 17.9 µM) | > 25 µg/mL
39 | COc1ccc2oc(-c3ccc(O)cc3)c(C(=O)O)c(=O)c2c1 | > 25 µg/mL | > 25 µg/mL | > 25 µg/mL | > 25 µg/mL | > 25 µg/mL
